Key:
[1] = system: cytochrome P450 (CYP) isoenzymes; type: in vitro ADME; settings: human liver microsomes; CYP1A1/2, CYP2C9, CYP2C19, CYP2D6 and CYP3A4
[2] = system: MCF7, SKBR3, HCC-1395 and MDA-MB-453; assay: apoptosis assay, Annexin V-FITC/PI flow cytometry; type: cell-based; settings: 0.25, 0.5, 1 µM
Protocol: For proliferation assay, 5 × 10^4 cells were plated in 6-well plate and treated with either vehicle (DMSO) or varying concentrations of (R)-9b or palbociclib in complete media for 96 h and number of viable cells were counted by trypan blue exclusion assay. Breast cancer cell lines were treated with vehicle or varying concentrations of (R)-9b for 72 h. The cells were harvested, washed 2 times with PBS and incubated with 3 ul of Annexin V-FITC antibody according to the manufacturers protocol (BD Biosciences). Five µl Propidium iodide was used to stain necrotic cells. The cells were acquired using the BD FACSCalibur machine (BD Biosciences) and data was analyzed using FlowJo software. Cell cycle analysis was performed as mentioned earlier. Briefly, vehicle or (R)-9b (48 h) treated cells were harvested by trypsinization, washed 2 times with PBS, and fixed using chilled 70% Ethanol for 1 h, followed by 2 washes with PBS. […] The data were analyzed using FlowJo software. […]
(A) MCF7, SKBR3, HCC-1395 and MDA-MB-453 cells were treated with 0.25µM, 0.5µM and 1 µM (R)-9b for 96h. […] Quantification of the live, early apoptotic, late apoptotic and necrotic cells is represented using stacked columns. […]

breast cancer cell lines = assay: cell cycle analysis, propidium iodide flow cytometry; type: cell-based; settings: 48 h
Protocol: (§1) A–F Breast cancer cells were treated with either vehicle or (R)-9b for 48 h; cells were harvested and processed for cell cycle analysis using propidium iodide staining, followed by flow cytometry. G BT549 and H MDA-MB-468 cells were treated with varying drug concentrations of palbociclib or (R)-9b for 96 h and the cell viability assessed using trypan blue exclusion method. I BT549, and J MDA-MB-468 cells were treated with 1 µM palbociclib or (R)-9b for 48 h and subjected to cell cycle analysis using propidium iodide staining, followed by flow-cytometry. Palbociclib-resistant MDA-MB-231 (K) and HCC-1395 (L) were generated and treated with varying drug concentrations of palbociclib or (R)-9b for 96 h and the cell viability assessed using trypan blue exclusion method.
(§2) For proliferation assay, 5 × 10^4 cells were plated in 6-well plate and treated with either vehicle (DMSO) or varying concentrations of (R)-9b or palbociclib in complete media for 96 h and number of viable cells were counted by trypan blue exclusion assay. Breast cancer cell lines were treated with vehicle or varying concentrations of (R)-9b for 72 h. The cells were harvested, washed 2 times with PBS and incubated with 3 ul of Annexin V-FITC antibody according to the manufacturers protocol (BD Biosciences). Five µl Propidium iodide was used to stain necrotic cells. The cells were acquired using the BD FACSCalibur machine (BD Biosciences) and data was analyzed using FlowJo software. Cell cycle analysis was performed as mentioned earlier. Briefly, vehicle or (R)-9b (48 h) treated cells were harvested by trypsinization, washed 2 times with PBS, and fixed using chilled 70% Ethanol for 1 h, followed by 2 washes with PBS. The cell pellets were treated with 50 µl RNase A (100 µg/ml; Sigma) for 15 min at 37 °C and Propidium Iodide (PI; 50 µg/ml, Sigma) was added to these cells, followed by acquisition using BD FACS Canto-II or FACSCalibur machines. The data were analyzed using FlowJo software.

[3] = system: normal breast cells, MCF10a; assay: as above; type: cell-based; settings: 48 h
Protocol: as §1, §2

[4] = system: MDA-MB-231 lung metastasis; assay: tail vein assay of cancer metastasis; type: in vivo, female SCID mice; settings: 24 mg/Kg, 5 days a week
Protocol: To validate the functional significance in vivo, we performed the tail vein assay of cancer metastasis. Briefly, MDA-MB-231 cells were injected in tail veins of female SCID mice and were treated with vehicle or 24 mg/Kg (R)-9b either subcutaneously or orally, for 5 days a week. The mice were euthanized and the lungs were harvested, preserved in 10% neutral buffered formalin, followed by H&E staining. Sections were examined by pathologist (C.W), and scored for metastatic nodules/deposits in 12 × 10 mm area of lung tissue.
MDA-MB-231 cells (2 × 10^5 in PBS), were injected intravenously in the lateral tail vein of female SCID mice. After 10 days, the mice were randomly chosen for treatment with either vehicle, (R)-9b (36 mg/Kg body weight) orally or subcutaneously (s.c.) (24 mg/Kg body weight) for 5 days a week, for 2 weeks. The mice were sacrificed and the lungs were harvested and fixed in 10% neutral buffered formalin. The number of metastatic foci per lung were scored in a blinded fashion by a pathologist (C.W.).

[5] = system: prostate cancer cell lines; set-up: method as in PMID 28609657; settings: various prostate cancer cell lines; cited from earlier work

SMILES: CN1CCN(c2ccc(Nc3ncc(Cl)c(NC[C@H]4CCCO4)n3)cc2)CC1 [(R)-9b]
- potential to inhibit cytochrome P450 (CYP) isoenzymes [1]: low potential to inhibit
- number of cells undergoing apoptosis [2]: marked increase
- cell cycle effect (breast cancer cell lines; MDA-MB-453, MCF7, HCC-1395, SKBR3 and T47D): arrest in G2/M phase
- cell cycle effect (breast cancer cell lines; palbociclib-resistant BT549 and MDA-MB-468 cells, 1 µM): G2/M cell cycle arrest
- cell cycle effect [3]: no G2/M arrest
- lung metastatic deposits ([4]; (R)-9b oral): 2 deposits
- lung metastatic deposits ([4]; (R)-9b subcutaneous): no deposits
- IC50 [5]: 400 nM
